Measurements taken from patent US7452865B2, “Antagonistic analogs of GH RH (2003)” (The Administrare's of the Tulane Educational Fund, priority 2004, dated 2008).
Marks after values point to notes of the source that are not given here. Square brackets hold non-standard residues; d marks the D form. Peptide text beside a SMILES is read from it. * marks the point of attachment. Phe(4-amidino) = N=C(N)c1ccc(C[C@H](N)C(=O)O)cc1; Phe(4-Cl) = N[C@@H](Cc1ccc(Cl)cc1)C(=O)O; hArg = N=C(N)NCCCC[C@H](N)C(=O)O; Nle = CCCC[C@H](N)C(=O)O; Abu = CC[C@H](N)C(=O)O; PhAc = O=C(Cc1ccccc1)*

Columns and labels:
pituitary = settings: cited from earlier work
[1] = test system: rat anterior pituitary adenylate cyclase; settings: cited from earlier work
GH secretion = settings: cited from earlier work
[2] = test system: hGH-RH(1-29)NH2 induced GH release; assay: Inhibition of GH release in superfused rat pituitary system; type: cell-based
In short: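 Dispersed rat pituitary cells in superfusion were preincubated 9 min with analog at various concentrations, then stimulated with 1 nM hGH-RH(1-29)NH2 for 3 min, repeated at 30, 60, 90, 120 min to gauge duration. GH measured by double-antibody RIA; net integrated responses expressed as percent of the initial 1 nM GH-RH response.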

mRNA for IGF-II = assay: DMS-153 human SCLC xenografts: expression of mRNA for IGF-II; type: in vivo, nude mice; settings: 10 μg/day s.c., 6 weeks, control group 100±1.5%
Procedure: (§1) Male nude mice were implanted s.c. with 3 mm^3 pieces of DMS-153 human SCLC tissue. When tumors reached a volume of approx. 100 mm^3 the mice were divided into 3 experimental groups of 68 animals each and received the following treatment for 6 weeks group 1 (control), vehicle solution; group 2, Peptide 67 (10 μg/day s.c.); group 3, Peptide 31 (10 μg/day s.c.). Tumor volumes were recorded twice a week. At the end of treatment, mice were anesthetized with isoflurane, killed by decapitation, trunk blood was collected for measurement of serum IGF-I, and tumors were excised and weighed. Data are presented as means±S.E. Data were evaluated by one way ANOVA and the Student-Newman-Keuls test.

IGF-I [3] = assay: PC-3 xenografts, Experiment 1: serum IGF-I (RIA); type: in vivo, nude mice; settings: 10 μg/day s.c., 28 days
Source text: (§2) For the measurement of GH and IGF-I levels in the serum, as well as IGF-I and IGF-II concentrations in the cytosol fraction of tumors, blood samples and tumor samples were collected and processed as described (Braczkowski R, Schally A V, Plonowski A, Varga J L, Groot K, Krupa M, Armatis P, Cancer 95: 1735-1745, 2002), hereby incorporated by reference. Briefly, blood samples are centrifuged to separate the serum, tumors are homogenized and centrifuged to separate the cytosol fraction. Serum GH is then measured by the double-antibody RIA method. Before measurement by RIA, IGF-I and IGF-II are extracted from serum and cytosol fractions using an acid-ethanol cryoprecipitation method that eliminates most of the IGF binding proteins, which can interfere with the RIA. IGF-I concentration is measured by RIA using IGF-I as a standard and goat anti-IGF-I antibody (both from DSL Inc., Webster, Tex.). IGF-II concentration is measured by RIA using human recombinant IGF-II (Bachem) as a standard and anti-IGF-II monoclonal antibody (Amano International Enzyme, Troy, Va.).
(§3) Male nude mice were implanted s.c. with 3 mm^3 pieces of PC-3 human hormone-independent prostate cancer tissue on both flanks. When tumors reached a volume of approx. 50 mm^3, the mice were divided into 5 experimental groups with 7 to 8 animals in each group and received single daily injections for 28 days as follows: 1. Control (vehicle solution); 2. JV-1-38 (10 μg/day s.c.); 3 Peptide 31 (10 μg/day s.c.); 4. Peptide 67 (10 μg/day s.c.); 5. Peptide 62 (10 μg/day s.c.). Tumor volumes were measured twice a week. The experiment was ended on day 29 by sacrificing the mice under Isoflurane anesthesia. Resulting tumors were cleaned, weighed, and snap-frozen until further analyses. Trunk blood was collected from the abdominal aorta and serum was separated for RIA measurement of IGF-I. Statistical analyses of the measurement results were done by two-tailed t-test; data are presented as the means±S.E.

IGF-II = assay: PC-3 xenografts, Experiment 1: tumor IGF-II (RIA); type: in vivo, nude mice; settings: 10 μg/day s.c., 28 days
Source text: as §2, §3

[4] = test system: PC-3 human prostate cancer xenografts; assay: PC-3 xenografts in nude mice, Experiment 1: tumor growth; type: in vivo
Procedure: as §3

[5] = test system: H-69 human SCLC xenografts; assay: H-69 human SCLC xenografts in nude mice: tumor growth; type: in vivo; settings: H-69
Procedure: Male nude mice were implanted s.c. with 3 mm^3 pieces of H-69 human SCLC tissue. When tumors reached a volume of approx. 80 mm^3 the mice were divided into 4 experimental groups of 7-8 animals each and received the following treatment for 4 weeks: group I (control), vehicle solution; group 2, Peptide 67 (10 μg/day s.c.); group 3, Peptide 31 (10 μg/day s.c.); group 4, Peptide 72 (10 μg/day s.c.). Tumor volumes were recorded twice a week. At the end of treatment, mice were anesthetized with isoflurane, killed by decapitation, and tumors were excised and weighed. Data are presented as means±S.E. Data were evaluated by one way ANOVA and the Student-Newman-Keuls test.

IGF-I [6] = assay: DMS-153 human SCLC xenografts: serum IGF-I; type: in vivo, nude mice; settings: 10 μg/day s.c., 6 weeks
Source text: as §2, §1

[7] = test system: DMS-153 human SCLC xenografts; assay: DMS-153 human SCLC xenografts in nude mice: tumor growth; type: in vivo
Procedure: as §1

[8] = 10 μg/day s.c., 28 days, vs control
[9] = 10 μg/day s.c., 6 weeks, vs control

Tyr-Ala-Asp-Ala-Ile^5-Phe-Thr-Asn-Ser-Tyr^10-Arg-Lys-Val-Leu-Gly^15-Gln-Leu-Ser-Ala-Arg^20-Lys-Leu-Leu-Gln-Asp^25-Ile-Met-Ser-Arg^29-NH2 [GH-RH(1-29)]
potency retained relative to native GH-RH (pituitary): ≥ 50%

[Ac-Tyr^1, D-Arg^2]hGH-RH(1-29)NH2 [Standard antagonist, reference compound]
activation of rat anterior pituitary adenylate cyclase by hGH-RH(1-29)NH2 [1]: prevent the activation
nocturnal GH secretion (GH secretion; 400 μg/kg, normal subjects): eliminated nocturnal GH secretion
GH levels (GH secretion; a patient with acromegaly): reduced GH levels
GH response (% of control) 0 min ([2]; antagonist 100 nM, 0 min): 38 % of control
GH response (% of control) 30 min ([2]; antagonist 100 nM, 30 min): 98 % of control
GH response (% of control) 60 min ([2]; antagonist 100 nM, 60 min): 81 % of control

CCCC[C@H](NC(=O)[C@@H](NC(=O)[C@H](CC(=O)O)NC(=O)[C@H](CCC(N)=O)NC(=O)[C@H](CC(C)C)NC(=O)[C@H](CC(C)C)NC(=O)[C@H](CCCCN)NC(=O)[C@H](CCCNC(=N)N)NC(=O)[C@H](C)NC(=O)[C@H](CO)NC(=O)[C@H](CC(C)C)NC(=O)[C@H](CCC(N)=O)NC(=O)[C@H](CC)NC(=O)[C@H](CC(C)C)NC(=O)[C@@H](NC(=O)[C@H](CCCCN)NC(=O)[C@H](CCCNC(=N)N)NC(=O)[C@H](Cc1ccc(C(=N)N)cc1)NC(=O)[C@H](CCCCNC(=N)N)NC(=O)[C@H](CC(N)=O)NC(=O)[C@@H](NC(=O)[C@H](Cc1ccc(Cl)cc1)NC(=O)[C@@H](NC(=O)[C@H](C)NC(=O)[C@H](CC(=O)O)NC(=O)[C@@H](CCCNC(=N)N)NC(=O)[C@H](Cc1ccc(O)cc1)NC(=O)Cc1ccccc1)[C@@H](C)CC)[C@@H](C)O)C(C)C)[C@@H](C)CC)C(=O)N[C@H](CCCNC(=N)N)C(=O)N[C@@H](CCCCNC(=N)N)C(N)=O [Peptide 31, [PhAc-Tyr^1, D-Arg^2, Phe(pCl)^6, Har^9, Amp^10, Abu^15, Nle^27, D-Arg^28, Har^29]hGH-RH(1-29)NH2] (PhAc-Y[dR]DAI[Phe(4-Cl)]TN[hArg][Phe(4-amidino)]RKVL[Abu]QLSARKLLQDI[Nle][dR][hArg]-NH2)
level of expression of mRNA for IGF-II (mRNA for IGF-II): 42.7±18.5%
Serum IGF-I (IGF-I [3]): 133 ± 16.7 ng/mL
Serum IGF-I (% inhibition) (IGF-I [3]; vs control): (11%)
Tumor IGF-II (pg/mg protein) (IGF-II): 130 ± 56.0 pg/mg protein
Tumor IGF-II (% inhibition) (IGF-II; vs control): (41%)
Tumor volume (mm^3) Final ([4]; 10 μg/day s.c., 28 days): 363 ± 92.8 mm^3
Tumor volume doubling time ([4]; 10 μg/day s.c., 28 days): 14.0 ± 2.69 days
Tumor weight ([4]; 10 μg/day s.c., 28 days): 237 ± 53.3 mg
Tumor volume Final (% inhibition) [4, 8]: (28%)
Tumor weight (% inhibition) [4, 8]: (37%)
Tumor volume (mm^3) Initial ([4]; at start of treatment): 49.1 ± 12.5 mm^3
Tumor volume (mm^3) Final ([5]; 10 μg/day s.c., 4 weeks): 832 ± 23* mm^3
Tumor volume Final (% inhibition) ([5]; 10 μg/day s.c., 4 weeks, vs control): (67%)
Tumor volume (mm^3) Initial ([5]; at start of treatment): 80 ± 6 mm^3
Serum IGF-I (IGF-I [6]): 118.4 ± 12.5 ng/mL
Serum IGF-I (% inhibition) (IGF-I [6]; vs control): (30%)
GH response (% of control) 0 min ([2]; antagonist 10 nM, 0 min): 57 % of control
GH response (% of control) 30 min ([2]; antagonist 10 nM, 30 min): 31 % of control
GH response (% of control) 60 min ([2]; antagonist 10 nM, 60 min): 37 % of control
GH response (% of control) 90 min ([2]; antagonist 10 nM, 90 min): 36 % of control
GH response (% of control) 120 min ([2]; antagonist 10 nM, 120 min): 37 % of control
GH response (% of control) 0 min ([2]; antagonist 30 nM, 1 nM hGH-RH(1-29)NH2 at 0 min): 7 % of control
GH response (% of control) 30 min ([2]; antagonist 30 nM, 1 nM hGH-RH(1-29)NH2 at 30 min): 1 % of control
GH response (% of control) 60 min ([2]; antagonist 30 nM, 1 nM hGH-RH(1-29)NH2 at 60 min): 2 % of control
GH response (% of control) 90 min ([2]; antagonist 30 nM, 1 nM hGH-RH(1-29)NH2 at 90 min): 4 % of control
GH response (% of control) 120 min ([2]; antagonist 30 nM, 1 nM hGH-RH(1-29)NH2 at 120 min): 3 % of control
endocrine antagonistic potency: inhibition of the GH release stimulated by hGH-RH(1-29)NH2 (in words) ([2]; general statement, in vitro and in vivo): high endocrine antagonistic potencies
Tumor volume (mm^3) Final ([7]; 10 μg/day s.c., 6 weeks): 3329 ± 180 mm^3
Tumor weight ([7]; 10 μg/day s.c., 6 weeks): 1.58 ± 0.11 g
Tumor volume Final (% inhibition) [7, 9]: (10%)
Tumor weight (% inhibition) [7, 9]: (32%)
Tumor volume (mm^3) Initial ([7]; at start of treatment): 138 ± 20 mm^3
